Assays:
Human PBMCs = experiment: CD3/CD28 mediated PBMC proliferation assay; assay type: cell-based; settings: proliferation of human PBMCs stimulated with anti-CD3 and anti-CD28, 72 hours, Cell Titer-Glo
Outline: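 PBMCs pre-treated 30 min with compound, then stimulated on plate-bound anti-CD3 (coated at 5 μg/mL) plus soluble anti-CD28 (2 μg/mL final) for 72 h at 37 °C. Proliferation measured as ATP by CellTiter-Glo; EC50 versus vehicle controls from dose-response curves.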

ITK = ITK (Homo sapiens (Human), UniProt Q08881); experiment: ITK kinase inhibition assay; assay type: biochemical; settings: micro-fluidic detection, 3 hours at 25° C.
Method: (§1) The in vitro kinase assays were performed at Nanosyn utilizing micro-fluidic detection technology. The test compounds were serially pre-diluted in DMSO and added, by the acoustic dispensing (Labcyte® 550), directly to 384 well assay plates into 10 uL of a buffer with enzyme comprising: 100 mM HEPES, pH7.5, 5 mM MgCl2, 0.1% bovine serum albumin, 1 mM DTT, 0.01% Triton X-100 and the enzyme. Final DMSO concentration was maintained at 1% in all samples, including the controls. The reactions were initiated by addition of ATP (to the specified concentration) and the fluorescently labeled peptide substrate to a final concentration of 1 uM, and incubated for 3 hours at 25° C. Following incubation, the reactions were quenched by addition of 40 μL of termination buffer (100 mM HEPES, pH7.5, 0.01% Triton X-100, 50 mM EDTA). Terminated plates were analyzed using Caliper LabChip® 3000 microfluidic electrophoresis instrument (Caliper Life Sciences/Perkin Elmer). The enzymatic modification of the peptide substrate (phosphorylation) results in a change of net charge enabling electrophoretic separation of product from substrate. As substrate and product are separated by electrophoresis, two peaks of fluorescence are observed. Change in the relative fluorescence intensity of the substrate and product peaks was the parameter measured, reflecting enzyme activity. In the presence of inhibitor, the ratio between product and substrate is altered: signal of the product decreases, while the signal of the substrate increases. Activity in each test sample was determined as the product to sum ratio (PSR):P/(S+P), where P is the peak height of the product and S is the peak height of the FAM-cAMP substrate. For each compound, enzyme activity was measured at 12 concentrations spaced by 3× dilution intervals. Negative control samples (0%-inhibition in the absence of inhibitor, DMSO only) and positive control samples (100%-inhibition, in the absence of enzyme or in the presence of control inhibitor) were assembled in replicates of four and were used to calculate %-inhibition values in the presence of compounds. Percent inhibition (Pinh) was determined using the following equation: Pinh=(PSR0%−PSRinh)/(PSR0%−PSR100%)*100, where PSRinh is the product sum ratio in the presence of inhibitor, PSR0% is the product sum ratio in the absence of inhibitor and PSR100% is the product sum ratio in 100%-inhibition control samples. To determine IC50 values, the inhibition curves (Pinh versus inhibitor concentration) were fitted by 4 parameter sigmoid dose-response model using XLfit software (IDBS).

RLK/TXK = RLK/TXK (Homo sapiens (Human), UniProt P42681); experiment: RLK/TXK kinase inhibition assay; assay type: biochemical; settings: micro-fluidic detection, 3 hours at 25° C.
Method: as §1, with “384well” for “384 well”, “(PSR): P/(S+P),” for “(PSR):P/(S+P),”

Chain of RLK/TXK (P42681 whole entry): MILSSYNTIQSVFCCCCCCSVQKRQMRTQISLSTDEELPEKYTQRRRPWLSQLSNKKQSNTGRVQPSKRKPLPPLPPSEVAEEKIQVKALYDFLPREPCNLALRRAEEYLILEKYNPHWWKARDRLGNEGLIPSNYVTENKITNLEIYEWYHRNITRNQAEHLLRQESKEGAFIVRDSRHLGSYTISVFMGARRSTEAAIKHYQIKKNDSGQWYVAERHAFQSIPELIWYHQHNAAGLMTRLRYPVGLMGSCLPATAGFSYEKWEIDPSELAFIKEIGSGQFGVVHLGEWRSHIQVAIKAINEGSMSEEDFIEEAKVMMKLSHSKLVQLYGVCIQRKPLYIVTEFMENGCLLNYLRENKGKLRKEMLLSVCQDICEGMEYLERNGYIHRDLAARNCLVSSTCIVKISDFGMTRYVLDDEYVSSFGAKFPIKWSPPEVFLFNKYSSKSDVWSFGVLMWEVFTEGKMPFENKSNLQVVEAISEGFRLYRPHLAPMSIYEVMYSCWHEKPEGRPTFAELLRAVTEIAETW
Chain of ITK (Q08881 whole entry): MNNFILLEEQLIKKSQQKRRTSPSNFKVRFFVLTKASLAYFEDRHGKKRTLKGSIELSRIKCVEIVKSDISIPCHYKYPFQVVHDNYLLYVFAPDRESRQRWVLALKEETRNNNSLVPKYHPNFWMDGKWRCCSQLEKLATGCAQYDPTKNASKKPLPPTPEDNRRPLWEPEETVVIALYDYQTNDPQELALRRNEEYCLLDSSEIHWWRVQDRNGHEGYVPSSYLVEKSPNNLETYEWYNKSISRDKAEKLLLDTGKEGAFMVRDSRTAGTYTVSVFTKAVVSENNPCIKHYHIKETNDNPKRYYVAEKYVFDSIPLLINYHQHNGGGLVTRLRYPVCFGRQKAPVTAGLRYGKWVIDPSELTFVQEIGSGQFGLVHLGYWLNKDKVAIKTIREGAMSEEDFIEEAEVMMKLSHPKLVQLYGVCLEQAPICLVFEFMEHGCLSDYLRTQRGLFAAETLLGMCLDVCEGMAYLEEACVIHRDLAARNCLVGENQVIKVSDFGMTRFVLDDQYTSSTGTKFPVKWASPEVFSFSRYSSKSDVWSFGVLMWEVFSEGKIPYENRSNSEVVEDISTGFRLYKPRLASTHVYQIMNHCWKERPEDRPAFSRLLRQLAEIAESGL

| Structure (SMILES) | EC50 (Human PBMCs) | EC50 (ITK) | EC50 (RLK/TXK) |
| --- | --- | --- | --- |
| C=CC(=O)Nc1cccc(-n2c(NC(=O)c3ccc(C(F)F)s3)nc3cc(CN[C@@H](C)C(C)(C)C)ccc32)c1 [Compound 2] | 10 to 100 nM | < 10 nM | < 10 nM |
| C=CC(=O)Nc1cccc(-n2c(NC(=O)c3ccc(-c4cnco4)s3)nc3cc(CN[C@@H](C)C(C)(C)C)ccc32)c1 [Compound 25] | < 10 nM | < 10 nM | < 10 nM |
| C=CC(=O)Nc1cccc(-n2c(NC(=O)c3cccc(C#N)c3)nc3cc(CN[C@@H](C)C(C)(C)C)ccc32)c1 [Compound 9] | 10 to 100 nM | < 10 nM | < 10 nM |
| C=CC(=O)Nc1cccc(-n2c(NC(=O)c3ccnn3C)nc3cc(CN[C@@H](C)C(C)(C)C)ccc32)c1 [Compound 28] | 10 to 100 nM | < 10 nM | < 10 nM |
| C=CC(=O)Nc1cccc(-n2c(NC(=O)c3ccno3)nc3cc(CN[C@@H](C)C(C)(C)C)ccc32)c1 [Compound 38] | 10 to 100 nM | < 10 nM | < 10 nM |

From patent publication US10562893B2, “Benzimidazoles derivatives as Tec kinases family inhibitors” (GB005, Inc., priority 2015, dated 2020)
